In patent US20200131159A1, “POSITIVE ALLOSTERIC MODULATORS OF THE MUSCARINIC ACETYLCHOLINE RECEPTOR M1” (Vanderbilt University, priority 2018, published 2020):

Biological target: T1, human mAChR M1 (Homo sapiens, UniProt P11229)
T1 construct: hM1 and hM4 cDNAs were purchased from Missouri S&T cDNA Resource; host or cells: CHO-K1 cells, stably transfected with Lipofectamine2000
T1 sequence (P11229 1-460): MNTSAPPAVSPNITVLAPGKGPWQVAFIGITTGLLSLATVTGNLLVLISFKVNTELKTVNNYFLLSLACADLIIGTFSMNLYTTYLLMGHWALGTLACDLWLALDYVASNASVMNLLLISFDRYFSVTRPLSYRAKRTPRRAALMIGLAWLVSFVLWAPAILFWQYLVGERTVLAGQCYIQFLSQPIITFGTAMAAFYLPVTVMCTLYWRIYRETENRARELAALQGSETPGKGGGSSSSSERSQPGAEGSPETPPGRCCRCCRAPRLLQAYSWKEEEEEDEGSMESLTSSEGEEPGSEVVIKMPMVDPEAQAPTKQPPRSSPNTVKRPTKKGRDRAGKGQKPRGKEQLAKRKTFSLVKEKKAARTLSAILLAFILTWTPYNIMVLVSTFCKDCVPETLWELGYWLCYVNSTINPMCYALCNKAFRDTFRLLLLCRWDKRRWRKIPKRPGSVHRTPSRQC
Experiment: mAChR M1 cell-based functional assay (calcium mobilization, PAM mode, EC20 acetylcholine)
Conditions: CHO-K1 cells expressing hM1, calcium flux (Fluo-4); for Emax: EC20 acetylcholine response; for EC50: concentration-dependent increase in the EC20 acetylcholine response
Excerpt: Chinese hamster ovary (CHO-K1) cells stably expressing rat (r)M1 were purchased from the American Type Culture Collection and cultured according to their indicated protocol. CHO cells stably expressing human (h)M2, hM3, and hM5 were described previously (Levey, et al., 1991); hM1 and hM4 cDNAs were purchased from Missouri S&T cDNA Resource; rM4 cDNA was provided by T. I. Bonner (National Institutes of Health, Bethesda, Md.). rM2 and rM3 were cloned from a rat brain cDNA library and sequence verified. hM1, rM2, rM3, hM4, and rM4 cDNAs were used to stably transfect CHO-K1 cells purchased from the American Type Culture Collection using Lipofectamine2000. To make stable rM2, hM2, rM3, hM4, and rM4 cell lines for use in calcium mobilization assays, these cells also were stably transfected with a chimeric G-protein (Gqi5) (provided by B. R. Conklin, University of California, San Francisco) using Lipofectamine 2000. rM1, hM1, rM3, hM3, rM5, and hM5 cells were grown in Ham's F-12 medium containing 10% heat-inactivated fetal bovine serum (FBS), 20 mM HEPES, and 50 µg/mL G418 sulfate. rM2-Gqi5, hM2-Gqi5, and hM4-Gqi5 cells were grown in the same medium also containing 500 μg/mL Hygromycin B. Stable rM4-Gqi5 cells were grown in DMEM containing 10% heat-inactivated FBS, 20 mM HEPES, 400 μg/mL G418 sulfate, and 500 μg/mL Hygromycin B.
For high throughput measurement of agonist-evoked increases in intracellular calcium, CHO-K1 cells stably expressing muscarinic receptors were plated in growth medium lacking G418 and hygromycin at 15,000 cells/20 μL/well in Greiner 384-well black-walled, tissue culture (TC)-treated, clear-bottom plates (VWR). Cells were incubated overnight at 37° C. and 5% CO2. The next day, cells were washed using an ELX 405 (BioTek) with four washes (80 μL) of assay buffer then aspirated to 20 μL. Next, 20 μL of 16 μM Fluo-4/acetoxymethyl ester (Invitrogen, Carlsbad, Calif.) prepared as a 2.3 mM stock in DMSO and mixed in a 1:1 ratio with 10% (w/v) Pluronic F-127 and diluted in assay buffer was added to the wells and the cell plates were incubated for 50 min at 37° C. and 5% CO2. Dye was removed by washing with the ELX 405 (four 80 μL washes of assay buffer) then aspirated to 20 μL. Compound master plates were formatted in an 11 point CRC format (1:3 dilutions) in 100% DMSO with a starting concentration of 10 mM using the BRAVO liquid handler (Agilent). Test compound CRCs were then transferred to daughter plates (240 nL) using the Echo acoustic plate reformatter (Labcyte, Sunnyvale, Calif.) and then diluted into assay buffer (40 μL) to a 2× stock using a Thermo Fisher Combi (Thermo Fisher Scientific, Waltham, Mass.).
Calcium flux was measured using the Functional Drug Screening System (FDSS) 6000 (Hamamatsu Corporation, Tokyo, Japan) as an increase in the fluorescent static ratio. Compounds were applied to cells (20 μL, 2×) using the automated system of the FDSS 6000 at 4 s into the 300 s protocol and the data were collected at 1 Hz. […] Agonist activity was analyzed as a concentration-dependent increase in calcium mobilization upon compound addition. Emax values for agonist activity are expressed relative to the maximum for acetylcholine. Positive allosteric modulator activity was analyzed as a concentration-dependent increase in the EC20 acetylcholine response. Antagonist activity was analyzed as a concentration-dependent decrease in the […] acetylcholine response. Concentration-response curves were generated using a four-parameter logistical equation in XLfit curve fitting software (IDBS, Bridgewater, N.J.) for Excel (Microsoft, Redmond, Wash.) or Prism (GraphPad Software, Inc., San Diego, Calif.).
Activity (EC50 and Emax) was determined in the mAChR M1 cell-based functional assay as described above and the data are shown in Table 2. The compound numbers correspond to the compound numbers used in Table 1.

Emax [%] | EC50 [nM] | Compound
42 | 5710 | Cn1cc2c(-c3cc(F)c(Cc4cc(C(=O)N[C@H]5CCCC[C@@H]5O)c5ncccc5c4)c(F)c3)cccc2n1 [compound 22, 6-[[2,6-difluoro-4-(2-methylindazol-4-yl)phenyl]methyl]-N-[(1S,2S)-2-hydroxycyclohexyl]quinoline-8-carboxamide]
77 | 108 | Cc1c(Cc2ccc(-n3cccn3)cc2)cc(C(=O)N[C@H]2CCOC[C@@H]2O)c2ncccc12 [compound 23, N-[(3R,4S)-3-hydroxytetrahydropyran-4-yl]-5-methyl-6-[(4-pyrazol-1-ylphenyl)methyl]quinoline-8-carboxamide]
66 | – | Cc1c(Cc2ccc(-n3cccn3)cc2)cc(C(=O)N[C@H]2CCCCC[C@@H]2O)c2ncccc12 [compound 24, N-[(1S,2S)-2-hydroxycycloheptyl]-5-methyl-6-[(4-pyrazol-1-ylphenyl)methyl]quinoline-8-carboxamide]
81 | 386 | Cc1c(Cc2ccc(-n3cccn3)cc2)cc(C(=O)N[C@H]2CCCC[C@@H]2O)c2ncccc12 [compound 25, N-[(1S,2S)-2-hydroxycyclohexyl]-5-methyl-6-[(4-pyrazol-1-ylphenyl)methyl]quinoline-8-carboxamide]
81 | 958 | Cc1c(Cc2ccc(-n3cccn3)cc2)cc(C(=O)N[C@H]2CCC[C@@H]2O)c2ncccc12 [compound 26, N-[(1S,2S)-2-hydroxycyclopentyl]-5-methyl-6-[(4-pyrazol-1-ylphenyl)methyl]quinoline-8-carboxamide]
73 | 1710 | Cc1c(Cc2ccc(-n3cccn3)cc2)cc(C(=O)N[C@H]2CC[C@@H]2O)c2ncccc12 [compound 27, N-[(1S,2S)-2-hydroxycyclobutyl]-5-methyl-6-[(4-pyrazol-1-ylphenyl)methyl]quinoline-8-carboxamide]
41 | 2250 | Cc1c(Cc2ccc(-n3cccn3)cc2)cc(C(=O)NC2CCOCC2)c2ncccc12 [compound 28, 5-methyl-6-[(4-pyrazol-1-ylphenyl)methyl]-N-tetrahydropyran-4-yl-quinoline-8-carboxamide]
72 | 197 | Cc1c(Cc2ccc(-c3ccn(C)n3)nc2)cc(C(=O)N[C@H]2CCOC[C@@H]2O)c2ncccc12 [compound 29, N-[(3R,4S)-3-hydroxytetrahydropyran-4-yl]-5-methyl-6-[[6-(1-methylpyrazol-3-yl)-3-pyridyl]methyl]quinoline-8-carboxamide]
72 | 356 | Cc1c(Cc2ccc(-c3ccn(C)n3)nc2)cc(C(=O)N[C@H]2CCCC[C@@H]2O)c2ncccc12 [compound 30, N-[(1S,2S)-2-hydroxycyclohexyl]-5-methyl-6-[[6-(1-methylpyrazol-3-yl)-3-pyridyl]methyl]quinoline-8-carboxamide]
67 | 4390 | Cc1c(Cc2ccc(-c3ccn(C)n3)nc2)cc(C(=O)NC2CCOCC2)c2ncccc12 [compound 31, 5-methyl-6-[[6-(1-methylpyrazol-3-yl)-3-pyridyl]methyl]-N-tetrahydropyran-4-yl-quinoline-8-carboxamide]
69 | 336 | Cc1nc(-c2ccc(Cc3cc(C(=O)N[C@H]4CCOC[C@@H]4O)c4ncccc4c3C)cc2)co1 [compound 32, N-[(3R,4S)-3-hydroxytetrahydropyran-4-yl]-5-methyl-6-[[4-(2-methyloxazol-4-yl)phenyl]methyl]quinoline-8-carboxamide]
75 | 2040 | Cc1nc(-c2ccc(Cc3cc(C(=O)N[C@H]4CCCCC[C@@H]4O)c4ncccc4c3C)cc2)co1 [compound 33, N-[(1S,2S)-2-hydroxycycloheptyl]-5-methyl-6-[[4-(2-methyloxazol-4-yl)phenyl]methyl]quinoline-8-carboxamide]
74 | 562 | Cc1nc(-c2ccc(Cc3cc(C(=O)N[C@H]4CCCC[C@@H]4O)c4ncccc4c3C)cc2)co1 [compound 34, N-[(1S,2S)-2-hydroxycyclohexyl]-5-methyl-6-[[4-(2-methyloxazol-4-yl)phenyl]methyl]quinoline-8-carboxamide]
38 | 1370 | Cc1nc(-c2ccc(Cc3cc(C(=O)NC4CCOCC4)c4ncccc4c3C)cc2)co1 [compound 35, 5-methyl-6-[[4-(2-methyloxazol-4-yl)phenyl]methyl]-N-tetrahydropyran-4-yl-quinoline-8-carboxamide]
